Data: the supplement of paper PMC11451515

Test system: SEM cells
Experiment: AUC of viability dose-response curve (% viability x log10 dose units); higher = less sensitive
Conditions: 48 h
How it was run: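 Area under the curve was integrated by trapezoidal rule from a log-logistic fit of normalised viability, with curves exceeding full viability scaled and quality-control failures removed. The fit had four parameters over log10 doses. Viability came from CellTiter-Glo One luminescence, normalised per plate to DMSO and cell-free wells, after leukemia cells adapted to each medium (500 or 1000 cells/well, 1536-well plates) were exposed to library compounds in DMSO for 48 h at 37°C. The 11 threefold doses ran from 47 μM to 0.79 nM.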

[1] = RPMI 5 mM glucose + 10% dialyzed FBS

## CC1CCN(c2cc(N3CCN(C)CC3)ccc2NC(=O)c2cc(C#N)c[nH]2)CC1
HPLM + 10% dialyzed FBS
  AUC of viability dose-response curve: 456
RPMI 5 mM glucose + 10% FBS
  AUC of viability dose-response curve: 444
[1]
  AUC of viability dose-response curve: 451

## CC(=O)O/N=C1/C(=C2\C(=O)Nc3cc(Br)ccc32)Nc2ccccc21
HPLM + 10% dialyzed FBS
  AUC of viability dose-response curve: 324
RPMI 5 mM glucose + 10% FBS
  AUC of viability dose-response curve: 317
[1]
  AUC of viability dose-response curve: 308
